Data from BindingDB's records for doi:10.1021/jm000022w (Cor Therapeutics, 2000).
Positions of bridges follow the written chain, without caps; N, C: chain ends. Non-standard residues stand in square brackets, D forms with d. Residues, ends and D or L forms follow the SMILES beside them. Phe(4-CH2NH2) = NCc1ccc(C[C@H](N)C(=O)O)cc1; Thz(5,5-Me2) = CC1(C)SCN[C@@H]1C(=O)O; NMeR = CN[C@@H](CCCNC(=N)N)C(=O)O

What was measured:
[1] = Inhibition of ADP-induced platelet aggregation
[2] = Inhibition of ADP-induced platelet aggregation; remark: listed apart in the source
[3] = Inhibition of alpha IIb beta-3 integrin mediated platelet aggregation
[4] = Inhibition of human platelet aggregation in platelet rich plasma
[5] = Inhibition of human gel filtered platelet aggregation mediated by 10 uM ADP
[6] = Inhibition of human platelet aggregation in platelet rich plasma (PRP)
[7] = Inhibition of human platelet aggregation
[8] = Inhibition of canine platelet aggregation
[9] = Inhibition of alpha IIb beta-3 integrin mediated platelet aggregation; remark: listed apart in the source
[10] = Inhibition of collagen-induced platelet aggregation
[11] = Inhibition of human gel filtered platelet aggregation induced by ADP
[12] = inhibition of platelet aggregation in human platelet rich plasma

Structure (SMILES): N=C(N)c1ccc(C(=O)Nc2ccc3c(c2)C(=O)N(CCC(=O)O)Cc2nnnn2-3)cc1 [3-[8-(4-Carbamimidoyl-benzoylamino)-6-oxo-4H,6H-1,2,3,5,10b-pentaaza-benzo[e]azulen-5-yl]-propionic acid(G7453)]
- IC50 [1]: 54 nM

Structure (SMILES): CCCCOC(=O)N[C@@H](CNC(=O)C1CC(OCc2ccc(C(=N)N)cc2)=NO1)C(=O)OC (some centres not stated) [2-Butoxycarbonylamino-3-{[3-(4-carbamimidoyl-benzyloxy)-4,5-dihydro-isoxazole-5-carbonyl]-amino}-propionic acid methyl ester(XU 065)]
- IC50 [2]: 50 nM

Structure (SMILES): CCOC(=O)CC1CCN(C(=O)C(C)(C)[C@@H](CC)NC(=O)c2ccc(C(=N)N3CCSC3)cc2F)CC1 [(1-{3-[2-Fluoro-4-(imino-thiazolidin-3-yl-methyl)-benzoylamino]-2,2-dimethyl-pentanoyl}-piperidin-4-yl)-acetic acid ethyl ester(NSL-96184)]
- IC50 [3]: 45 nM

Structure (SMILES): O=C(NC[C@H](NS(=O)(=O)c1ccccc1)C(=O)O)c1cnc(N2CCN(C3CCNCC3)CC2)s1 [2-Benzenesulfonylamino-3-{[2-(4-piperidin-4-yl-piperazin-1-yl)-thiazole-5-carbonyl]-amino}-propionic acid (UR-12947)]
- IC50 [4]: 3.5 nM

Structure (SMILES): CC(=O)N[C@H]1CSSC[C@@H](C(=O)O)NC(=O)[C@H](CC(=O)O)NC(=O)CNC(=O)[C@H](Cc2ccc(CN)cc2)NC(=O)[C@H]2N(CSC2(C)C)C(=O)[C@H](CC(N)=O)NC1=O [8-Acetylamino-22-(4-aminomethyl-benzyl)-5-carbamoylmethyl-16-carboxymethyl-1,1-dimethyl-4,7,15,18,21,24-hexaoxo-icosahydro-2,10,11-trithia-3a,6,14,17,20,23-hexaaza-cyclopentacyclotricosene-13-carboxylic acid (MK-0852)] (Ac-CN[Thz(5,5-Me2)][Phe(4-CH2NH2)]GDC-OH; disulfide 1-7)
- IC50 [5]: 26 nM

Structure (SMILES): O=C(CCCC1CCNCC1)NCC(=O)N[C@H](CCc1c[nH]c2ccccc12)C(=O)O [L-703014]
- IC50 [6]: 94 nM

Structure (SMILES): CC(=O)N[C@H]1CSSC[C@@H](C(N)=O)NC(=O)[C@H](CC(=O)O)NC(=O)CNC(=O)[C@H](CCCNC(=N)N)N(C)C1=O [[16-Acetylamino-4-carbamoyl-13-(3-guanidino-propyl)-14-methyl-6,9,12,15-tetraoxo-1,2-dithia-5,8,11,14-tetraaza-cycloheptadec-7-yl]-acetic acid (SK&F 106760)] (Ac-C[NMeR]GDC-NH2; disulfide 1-5)
- IC50 [7]: 230 nM
- IC50 [8]: 90 nM

Structure (SMILES): C[C@H](CC(=O)O)NC(=O)CN1CCC[C@@H](CCC2CCNCC2)C1=O [3-{2-[2-Oxo-3-(2-piperidin-4-yl-ethyl)-piperidin-1-yl]-acetylamino}-butyric acid (L-734217)]
- IC50 [9]: 23 nM

Structure (SMILES): CCOC(=O)CCNC(=O)N[C@H]1CCN(c2ccc(C(=N)N)cc2)C1=O [SC-57099B]
- IC50 [10]: 130 nM
- IC50 [11]: 80 nM

Structure (SMILES): CCOC(=O)COC1CCN(C(=O)[C@H](C)NC(=O)c2ccc(C(=N)NO)cc2)CC1 [((S)-1-{2-[4-(N-Hydroxycarbamimidoyl)-benzoylamino]-propionyl}-piperidin-4-yloxy)-acetic acid ethyl ester]
- IC50 [12]: 38 nM
